“And” between values parts separate entries of the source, which are not always exact repeats. Equal entries are not always repeated.
What was measured:
A549 cells = experiment: MTT detection method, inhibitory effect against A549 cells; format: cell-based
Source text: (§1) MTT detection method was used, and MTT is a yellow compound and a dye accepting hydrogen ions, and can be used as the respiratory chain in mitochondria of viable cells. Under the action of succinate dehydrogenase and cytochrome C, the tetrazolium ring broke to form blue formanzan crystal, and the formation amount of formanzan crystal was only directly proportional to the viable counts. The formanzan crystal formed by reduction can dissolve in dimethyl sulfoxide (DMSO), and the optical density (OD) value can be determined at 490 nm using ELISA, to reflect the viable counts.
(§2) • Lung cancer cell lines: A549 and H1299. • Experimental materials: lung cancer cell lines, instruments and tools for cell culture, MTT, the compound mother liquid (10 mmol/L), and the positive control drug Src inhibitor pp1. 1. Specific Method • (3-1) Cell lines A549 and H1299 were recovered, and when the cells were in good conditions, namely cells grew to about 80% after one passage (i.e. the logarithmic growth phase), the cells were planked (96-well plate). • (3-2) Firstly, cells were collected, and the concentration of cell suspension was adjusted with counting chamber. Cells were seeded in 96-well plate at 1000˜10000 cells/well, and the detailed cell numbers in each well were dependent on the growth rate of different cells and the action time of drugs. A549 cells were seeded at 5000 cells, while H1299 cells were also seeded at 5000 cells, 200 μl for each well (100 μl cell suspension+100 μl drug dilution at different concentration gradient). The edge wells (36) were added 200 μl culture media (for prevention of edge effect). • (3-3) After planking and adding drugs, the plate was treated at 24 h, 48 h, and 72 h, and then for coloration, each well was added 200 μl culture media containing 20 μl MTT solution (5 mg/mL). The plate was continually cultured for 1˜4 hours, the incubation was stopped, and the culture supernatant fluid in each well was carefully absorbed. For suspension cells, the culture supernatant fluid in each well need be centrifuged before drawing. 150 μl DMSO was added to each well, and the plate was shaken on a shaking table for 15˜20 min, to allow the crystals to be completely dissolved. • (3-4) Colorimetry: The colorimetry was performed by ELISA, and the optical absorption value of each well was tested at a wavelength of 490 nm or 570 nm, and the result was recorded. • (3-5) Calculation Inhibition ratio=(the control−the drug)/the control×100% • IC50 (50% inhibitory concentration) can be calculated by spass software based on the inhibitory ratio at different concentration. II. Experimental Results • A549 cells were treated at 4 h, 24 h, 48 h, 72 h, and the drug dose was divided into the light concentration group (10 μm, 25 μm, 40 μm) and the high concentration group (50 μm, 80 μm, 100 μm), that were seeded at 6000 cells/well and 5000 cells/well, respectively, to carry out the experiment.

H1299 cells = experiment: MTT detection method, inhibitory effect against H1299 cells; format: cell-based
Source text: as §1, §2
H1299 cells were seeded at 5000 cells/well, and after treatment for 4 h, 24 h, 48 h, and 72 h, the results were shown in Tables 5-9 and FIGS. 5-8: […]

## CC(C)(C)n1nc(-c2ccc(OCCOCCOCCOCCO)cc2)c2c(N)ncnc21 [Compound 5, 2-(2-(2-(2-(4-(4-amino-1-tert-butyl-1H-pyrazolo[3,4-d]pyrimidin-3-)phenoxy)ethoxy)ethoxy)ethoxy)ethanol]
A549 cells; 4 h, 10 μm
  The inhibitory ratio (%) for three parallel assays: 26.88% and 26.25% and 28.75%
  The mean inhibitory ratio (%): 27.29%
A549 cells; 4 h, 25 μm
  The mean inhibitory ratio (%): 21.77%
A549 cells; 4 h, 40 μm
  The inhibitory ratio (%) for three parallel assays: 23.44% and 20.94% and 18.13%
  The mean inhibitory ratio (%): 20.83%
A549 cells; 4 h, 50 μm
  The inhibitory ratio (%) for three parallel assays: 16.57% and 11.14% and 14.57%
  The mean inhibitory ratio (%): 14.10%
A549 cells; 4 h, 80 μm
  The inhibitory ratio (%) for three parallel assays: 20.86% and 20.29% and 14.57%
  The mean inhibitory ratio (%): 18.57%
A549 cells; 4 h, 100 μm
  The inhibitory ratio (%) for three parallel assays: 24.00% and 20.86% and 22.57%
  The mean inhibitory ratio (%): 22.48%
A549 cells; 24 h, 10 μm
  The inhibitory ratio (%) for three parallel assays: 14.35% and 15.65% and 13.26%
  The mean inhibitory ratio (%): 14.42%
A549 cells; 24 h, 25 μm
  The inhibitory ratio (%) for three parallel assays: 22.39% and 13.70% and 14.78%
  The mean inhibitory ratio (%): 16.96%
A549 cells; 24 h, 40 μm
  The inhibitory ratio (%) for three parallel assays: 26.30% and 16.52% and 14.13%
  The mean inhibitory ratio (%): 18.99%
A549 cells; 24 h, 50 μm
  The inhibitory ratio (%) for three parallel assays: 17.08% and 18.33% and 17.92%
  The mean inhibitory ratio (%): 17.78%
A549 cells; 24 h, 80 μm
  The inhibitory ratio (%) for three parallel assays: 22.50% and 20.83% and 20.21%
  The mean inhibitory ratio (%): 21.18%
A549 cells; 24 h, 100 μm
  The inhibitory ratio (%) for three parallel assays: 27.92% and 27.50%
  The mean inhibitory ratio (%): 27.78%
A549 cells; 48 h, 10 μm
  The mean inhibitory ratio (%): 9.64%
A549 cells; 48 h, 25 μm
  The inhibitory ratio (%) for three parallel assays: 14.84% and 14.22% and 13.91%
  The mean inhibitory ratio (%): 14.32%
A549 cells; 48 h, 40 μm
  The inhibitory ratio (%) for three parallel assays: 19.22% and 26.72% and 20.63%
  The mean inhibitory ratio (%): 22.19%
A549 cells; 48 h, 50 μm
  The inhibitory ratio (%) for three parallel assays: 15.33% and 13.33% and 12.83%
  The mean inhibitory ratio (%): 13.83%
A549 cells; 48 h, 80 μm
  The inhibitory ratio (%) for three parallel assays: 15.33% and 19.67% and 18.00%
  The mean inhibitory ratio (%): 17.67%
A549 cells; 48 h, 100 μm
  The inhibitory ratio (%) for three parallel assays: 30.50% and 31.33% and 31.67%
  The mean inhibitory ratio (%): 31.17%
A549 cells; 72 h, 10 μm
  The inhibitory ratio (%) for three parallel assays: 9.82% and 8.11% and 15.05%
  The mean inhibitory ratio (%): 10.99%
A549 cells; 72 h, 25 μm
  The inhibitory ratio (%) for three parallel assays: 35.41% and 32.43% and 39.37%
  The mean inhibitory ratio (%): 35.74%
A549 cells; 72 h, 40 μm
  The inhibitory ratio (%) for three parallel assays: 50.18% and 45.68% and 50.45%
  The mean inhibitory ratio (%): 48.77%
A549 cells; 72 h, 50 μm
  The inhibitory ratio (%) for three parallel assays: 20.27% and 17.70% and 22.30%
  The mean inhibitory ratio (%): 20.09%
A549 cells; 72 h, 80 μm
  The inhibitory ratio (%) for three parallel assays: 29.59% and 28.51% and 30.14%
  The mean inhibitory ratio (%): 29.41%
A549 cells; 72 h, 100 μm
  The inhibitory ratio (%) for three parallel assays: 53.11% and 52.70% and 54.05%
  The mean inhibitory ratio (%): 53.29%
H1299 cells; 4 h, 10 μm
  The inhibitory ratio (%) for three parallel assays: 4% and 6%
  The mean inhibitory ratio (%): 4%
H1299 cells; 4 h, 25 μm
  The inhibitory ratio (%) for three parallel assays: 6% and 7%
  The mean inhibitory ratio (%): 7%
H1299 cells; 4 h, 40 μm
  The inhibitory ratio (%) for three parallel assays: 7% and 8%
  The mean inhibitory ratio (%): 8%
H1299 cells; 4 h, 50 μm
  The inhibitory ratio (%) for three parallel assays: 13% and 9%
  The mean inhibitory ratio (%): 10%
H1299 cells; 4 h, 80 μm
  The inhibitory ratio (%) for three parallel assays: 12% and 13%
  The mean inhibitory ratio (%): 12%
H1299 cells; 4 h, 100 μm
  The inhibitory ratio (%) for three parallel assays: 13% and 15% and 14%
  The mean inhibitory ratio (%): 14%
H1299 cells; 24 h, 10 μm
  The inhibitory ratio (%) for three parallel assays: 10% and 8% and 13%
  The mean inhibitory ratio (%): 11%
H1299 cells; 24 h, 25 μm
  The inhibitory ratio (%) for three parallel assays: 14% and 13%
  The mean inhibitory ratio (%): 14%
H1299 cells; 24 h, 40 μm
  The inhibitory ratio (%) for three parallel assays: 11% and 13% and 14%
  The mean inhibitory ratio (%): 13%
H1299 cells; 24 h, 50 μm
  The inhibitory ratio (%) for three parallel assays: 20% and 25% and 26%
  The mean inhibitory ratio (%): 24%
H1299 cells; 24 h, 80 μm
  The inhibitory ratio (%) for three parallel assays: 28% and 26% and 24%
  The mean inhibitory ratio (%): 26%
H1299 cells; 24 h, 100 μm
  The inhibitory ratio (%) for three parallel assays: 29% and 31% and 26%
  The mean inhibitory ratio (%): 28%
H1299 cells; 48 h, 10 μm
  The inhibitory ratio (%) for three parallel assays: 4% and 5% and 6%
  The mean inhibitory ratio (%): 5%
H1299 cells; 48 h, 25 μm
  The inhibitory ratio (%) for three parallel assays: 15% and 18% and 14%
  The mean inhibitory ratio (%): 16%
H1299 cells; 48 h, 40 μm
  The inhibitory ratio (%) for three parallel assays: 22% and 25%
  The mean inhibitory ratio (%): 23%
H1299 cells; 48 h, 50 μm
  The inhibitory ratio (%) for three parallel assays: 24% and 26%
  The mean inhibitory ratio (%): 25%
H1299 cells; 48 h, 80 μm
  The inhibitory ratio (%) for three parallel assays: 36% and 38%
  The mean inhibitory ratio (%): 37%
H1299 cells; 48 h, 100 μm
  The inhibitory ratio (%) for three parallel assays: 42% and 41%
  The mean inhibitory ratio (%): 41%
H1299 cells; 72 h, 10 μm
  The inhibitory ratio (%) for three parallel assays: 8% and 5% and 2%
  The mean inhibitory ratio (%): 5%
H1299 cells; 72 h, 25 μm
  The inhibitory ratio (%) for three parallel assays: 7% and 4% and 3%
  The mean inhibitory ratio (%): 5%
H1299 cells; 72 h, 40 μm
  The inhibitory ratio (%) for three parallel assays: 18% and 21% and 23%
  The mean inhibitory ratio (%): 20%
H1299 cells; 72 h, 50 μm
  The inhibitory ratio (%) for three parallel assays: 26% and 23%
  The mean inhibitory ratio (%): 24%
H1299 cells; 72 h, 80 μm
  The inhibitory ratio (%) for three parallel assays: 37% and 36% and 38%
  The mean inhibitory ratio (%): 37%
H1299 cells; 72 h, 100 μm
  The inhibitory ratio (%) for three parallel assays: 45% and 41% and 39%
  The mean inhibitory ratio (%): 42%
